Molecular target: T1, human TRPC6 (Homo sapiens, UniProt Q9Y210)
T1 construct: expressed in transfected cells
T1 sequence (Q9Y210 1-931): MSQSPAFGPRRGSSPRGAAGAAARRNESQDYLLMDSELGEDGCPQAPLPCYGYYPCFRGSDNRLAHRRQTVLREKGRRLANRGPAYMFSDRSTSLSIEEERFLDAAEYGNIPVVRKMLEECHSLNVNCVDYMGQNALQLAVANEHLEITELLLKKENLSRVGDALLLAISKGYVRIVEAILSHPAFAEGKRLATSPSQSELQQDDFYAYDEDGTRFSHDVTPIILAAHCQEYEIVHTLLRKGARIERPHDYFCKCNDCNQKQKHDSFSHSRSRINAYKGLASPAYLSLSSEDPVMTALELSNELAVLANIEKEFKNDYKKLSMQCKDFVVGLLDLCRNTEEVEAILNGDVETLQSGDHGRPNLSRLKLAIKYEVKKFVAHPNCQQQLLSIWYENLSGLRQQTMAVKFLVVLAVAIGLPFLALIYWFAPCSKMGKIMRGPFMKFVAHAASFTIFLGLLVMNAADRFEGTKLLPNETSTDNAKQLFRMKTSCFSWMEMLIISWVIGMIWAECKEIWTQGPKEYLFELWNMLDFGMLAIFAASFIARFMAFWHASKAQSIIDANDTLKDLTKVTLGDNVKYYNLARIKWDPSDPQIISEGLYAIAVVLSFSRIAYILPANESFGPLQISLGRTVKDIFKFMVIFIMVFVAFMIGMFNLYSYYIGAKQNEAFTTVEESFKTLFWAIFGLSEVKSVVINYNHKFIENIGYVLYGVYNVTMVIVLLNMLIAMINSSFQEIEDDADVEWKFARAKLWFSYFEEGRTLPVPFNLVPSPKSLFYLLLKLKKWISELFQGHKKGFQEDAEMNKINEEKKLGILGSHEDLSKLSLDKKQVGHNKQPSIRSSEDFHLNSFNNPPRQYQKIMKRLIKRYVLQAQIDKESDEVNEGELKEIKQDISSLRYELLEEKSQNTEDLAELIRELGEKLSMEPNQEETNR
Experiment: High Throughput Screening Assay Method 2 (membrane potential dye, GSK1702934A agonist, HEK293 stably transfected with human TRPC6)
Assay type: cell-based
Conditions: antagonist effect against human TRPC6, 3 μM GSK1702934A agonist, HEK293 TRPC6 cells, read-out: Fluorescence TRPC6 IC50
Source text: (§1) This screening assay measures TRPC6 (transient receptor potential cation channel, subfamily C, member 6) ion channel activation via addition either of the commercially available DAG ligand analogue OAG (1-oleoyl-2-acetyl-sn-glycerol) or of the TRPC6 agonist 1-[1-(4,5,6,7,8-pentahydrocyclohepta[2,1-d]thiophen-2-ylcarbonyl)-4-piperidyl]-3-hydrobenzimidazol-2-one (GSK1702934A). The assay utilizes a FLIPR membrane potential (FMP) dye from Molecular Devices, which is a voltage sensitive indicator with a fluorescent quencher. Changes in membrane potential as measured by the fluorescent signal increase during membrane depolarization provide a measurement of channel activity.
The commercially available HEK293 cell line (ATCC) was stably transfected with an human TRPC6 gene construct in pcDNA3.1(+) (Thermo Fisher) and screened to find a clone with TRPC6 expression. These cells were maintained in growth medium recommended by the manufacturer supplemented with 400 μg/ml G418 to promote retention of the TRPC6 construct. After growing to near confluency, cells were plated at a density of 15,000 cells/well in clear bottom black walled poly-D-Lys coated 384-well tissue culture treated plates (TwinHelix, cat. #GR 4332 CPL) in growth medium lacking G418, and allowed to grow for 24 hrs. Growth media was removed from the wells and cells were then loaded with 20 μL of 0.5× Membrane Potential sensitive dye (Molecular Devices) in the presence of 30 μM BAPTA-AM (Invitrogen) in Tyrode's assay buffer (130 mM NaCl, 5 mM KCl, 0.15 mM CaCl2), 1 mM MgCl2, 5 mM NaHCO3, 20 mM HEPES, pH 7.4) and incubated for 60 min at room temperature in the dark. Ten μL/well of test compound or controls was added to the wells with the FLIPR^TETRA (Molecular Devices) and incubated for 5 minutes. Compounds were tested at eight concentrations (10, 3.16, 1, 0.316, 0.1, 0.0316, 0.01 and 0.00316 μM diluted in Tyrode's assay buffer and 0.5% DMSO, final concentration) with inter-plate duplicate data points. Subsequently, 15 μL/well of GSK1702934A agonist in Tyrode's assay buffer was added to a final concentration of 3 μM by the FLIPR^TETRA and the signal of the emitted fluorescence (Excitation: 510-545 nm, Emission: 565-625 nm) was recorded for 3 minutes. Negative and positive controls were included on each plate. Negative controls wells consisted of cells exposed to Tyrode's assay buffer and agonist solution, but no test compound. Positive control consisted of cells exposed to […] Verapamil hydrochloride (Tocris, cat. #0654) diluted in Tyrode's assay buffer and 0.5% DMSO final concentration and agonist solution. Inhibition was expressed as a percentage of control, with 0% activity being a result in which the response value of the test wells reached a level identical to the wells containing Verapamil plus GSK1702934A and 100% activity being a result in which the response value of the test wells reached a level identical to the wells containing GSK1702934A alone. Genedata Screener® 14.0.6 was used for data analysis to fit IC50 curves.

SMILES	IC50
COc1cc(C(=O)N2CCC(c3cnc(N)cc3OC)CC2)c(F)cc1OCC1CC1 [Compound 35, 5-{1-[4-(Cyclopropylmethoxy)-2-fluoro-5-methoxybenzoyl]piperidin-4-yl}-4-methoxypyridin-2-amine]	154 nM
COc1cc(N)ncc1N1CCN(C(=O)c2ccc(Oc3ccc(F)cc3)cc2F)C2(CC2)C1 [Compound 27, 5-{4-[2-Fluoro-4-(4-fluorophenoxy)benzoyl]-4,7-diazaspiro[2.5]octan-7-yl}-4-methoxypyridin-2-amine]	97 nM
Nc1ccc(C2CCN(C(=O)c3cc(F)c(Oc4ccc(F)cc4)cc3F)CC2)nn1 [Compound 45, 6-{1-[2,5-Difluoro-4-(4-fluorophenoxy)benzoyl]piperidin-4-yl}pyridazin-3-amine]	61 nM

Molecular target: T1, human TRPC6
Experiment: High Throughput Screening Assay Method 1 (FLIPR membrane potential dye, OAG activation, HEK293 cells expressing human TRPC6)
Assay type: cell-based
Conditions: antagonist effect against human TRPC6, 60 μM OAG, read-out: Fluorescence TRPC6 IC50
Source text: as §1
The commercially available HEK293 cell line expressing human TRPC6 channel (Axxam/PerkinElmer) is scaled up in bulk and frozen in liquid nitrogen. Frozen cell stocks are thawed and re-suspended in culture media as recommended by the manufacturer supplemented with 0.5 mg/ml of geneticin to promote retention of the TRPC6 construct. Cells are plated at a density of 15,000 cells/well in Greiner 384 well poly-D-lysine coated black clear bottom plates, and incubated for 18-20 h at 37° C. and 5% CO2. To initiate the assay, the growth media is removed using a plate washer and 25 ul of a FMP dye mix is added to each well. The 4× stock FMP dye from the manufacturer is diluted 1× with assay buffer (low calcium Tyrode's assay buffer: 130 mM NaCl, 5 mM KCl, 0.15 mM CaCl2), 1 mM MgCl2, 5 mM NaHCO3, 20 mM HEPES pH 7.4) containing 36 μM BAPTA/AM. The cells are incubated at room temperature (19-22° C.) for 30 minutes. For the screening assay, 5 uL of diluted compound stock is added to each well and incubated for 15 minutes at room temperature (19-22° C.). Using the Hamamatsu FDSS6000 or FDSS7000, 10 uL of the synthetic, membrane permeant analog of 1,2 diacylglycerol (DAG), 1-oleoyl-2-acetoyl-n-glycerol (OAG), is added and fluorescent readings taken every second from 50 seconds to 3 minutes. […] Controls and blanks consisted of HEK293 TRPC6 cells that are exposed to OAG. A reference inhibitor added along with the test compound is included as part of the blanks. This inhibitor suppresses the TRPC6 channel activation. These controls set the screening window, and “hits” are defined as those compounds inhibiting the membrane depolarization caused by OAG by at least 50%. IC50 values are determined for compounds that meet these criteria by titrating compound stock at a final starting concentration of 30 μM using a 3-fold serial dilution for 11 points. Curves are generated by fitting each data set to a four-parameter logistic equation using nonlinear regression.

SMILES	IC50
Nc1ccc(C2CCN(C(=O)c3ccc(Oc4ccccc4)cc3)CC2)cn1 [Compound 1, 5-[1-(4-phenoxybenzoyl)piperidin-4-yl]pyridin-2-amine]	326 nM
Nc1ccc(C2CCN(C(=O)c3ccc(Oc4ccc(Cl)cc4)cc3)CC2)nn1 [Compound 13, 6-{1-[4-(4-chlorophenoxy)benzoyl]piperidin-4-yl}pyridazin-3-amine]	266 nM
COc1ccc(Oc2ccc(C(=O)N3CCC(c4ccc(N)nn4)CC3)cc2)cc1 [Compound 9, 6-{1-[4-(4-methoxyphenoxy)benzoyl]piperidin-4-yl}pyridazin-3-amine]	511 nM
Nc1ccc(C2CCN(C(=O)c3ccc(Oc4ccc(C(F)(F)F)cc4)cc3)CC2)nn1 [Compound 2, 6-(1-{4-[4-(trifluoromethyl)phenoxy]benzoyl}piperidin-4-yl)pyridazin-3-amine]	504 nM
Nc1ccc(N2CCN(C(=O)c3ccc(Oc4ccc(C5CC5)cc4)cc3)CC2)nn1 [Compound 6, 6-{4-[4-(4-cyclopropylphenoxy)benzoyl]piperazin-1-yl}pyridazin-3-amine]	540 nM
CN(C)C(=O)c1ccc(Oc2ccc(C(=O)N3CCN(c4ccc(N)nn4)CC3)cc2)cc1 [Compound 25, 4-{4-[4-(6-aminopyridazin-3-yl)piperazine-1-carbonyl]phenoxy}-N,N-dimethylbenzamide]	8970 nM
Nc1ccc(C2CCN(C(=O)c3ccc(Oc4ccccc4)cc3)CC2)nn1 [Compound 3, 6-[1-(4-phenoxybenzoyl)piperidin-4-yl]pyridazin-3-amine]	39 nM
Nc1ccc(N2CCN(C(=O)c3ccc(Oc4ccccc4)cc3)CC2)nn1 [Compound 24, 6-[4-(4-phenoxybenzoyl)piperazin-1-yl]pyridazin-3-amine]	199 nM
Nc1ccc(N2CCN(C(=O)c3ccc(Oc4ccc5c(c4)OCO5)cc3)CC2)nn1 [Compound 8, 6-{4-[4-(2H-1,3-benzodioxol-5-yloxy)benzoyl]piperazin-1-yl}pyridazin-3-amine]	1230 nM
Nc1ccc(N2CCN(C(=O)c3ccc(Oc4ccc(C(F)(F)F)cc4)cc3)CC2)nn1 [Compound 26, 6-(4-{4-[4-(trifluoromethyl)phenoxy]benzoyl}piperazin-1-yl)pyridazin-3-amine]	3750 nM
Nc1ccc(N2CCN(C(=O)c3ccc(Oc4ccccc4)cc3)CC2)cn1 [Compound 15, 5-[4-(4-phenoxybenzoyl)piperazin-1-yl]pyridin-2-amine]	422 nM
Nc1ccc(N2CCN(C(=O)c3ccc(Oc4ccc(C(F)(F)F)c(F)c4)cc3)CC2)nn1 [Compound 22, 6-(4-{4-[3-fluoro-4-(trifluoromethyl)phenoxy]benzoyl}piperazin-1-yl)pyridazin-3-amine]	8880 nM
N#Cc1ccc(Oc2ccc(C(=O)N3CCN(c4ccc(N)nn4)CC3)cc2)cc1 [Compound 7, 4-{4-[4-(6-aminopyridazin-3-yl)piperazine-1-carbonyl]phenoxy}benzonitrile]	4670 nM
Nc1ccc(N2CCN(C(=O)c3ccc(Oc4ccc(OC(F)(F)F)cc4)cc3)CC2)nn1 [Compound 21, 6-(4-{4-[4-(trifluoromethoxy)phenoxy]benzoyl}piperazin-1-yl)pyridazin-3-amine]	191 nM
CC(C)c1ccc(Oc2ccc(C(=O)N3CCC(c4ccc(N)nn4)CC3)cc2)cc1 [Compound 17, 6-(1-{4-[4-(propan-2-yl)phenoxy]benzoyl}piperidin-4-yl)pyridazin-3-amine]	2190 nM
Nc1ccc(C2CCN(C(=O)c3ccc(Oc4ccc(F)cc4)cc3)CC2)nn1 [Compound 10, 6-{1-[4-(4-fluorophenoxy)benzoyl]piperidin-4-yl}pyridazin-3-amine]	75 nM
Nc1ccc(C2CCN(C(=O)c3ccc(Oc4ccc(C5CC5)cc4)cc3)CC2)nn1 [Compound 12, 6-{1-[4-(4-cyclopropylphenoxy)benzoyl]piperidin-4-yl}pyridazin-3-amine]	400 nM
Cc1ccc(Oc2ccc(C(=O)N3CCC(c4ccc(N)nn4)CC3)cc2)cc1 [Compound 5, 6-{1-[4-(4-methylphenoxy)benzoyl]piperidin-4-yl}pyridazin-3-amine]	372 nM
Nc1ccc(C2CCN(C(=O)c3ccc(Oc4ccc(OC(F)(F)F)cc4)cc3)CC2)nn1 [Compound 4, 6-(1-{4-[4-(trifluoromethoxy)phenoxy]benzoyl}piperidin-4-yl)pyridazin-3-amine]	351 nM

From US11370771B2, “Inhibitors of TRPC6” (Boehringer Ingelheim International GmbH, priority 2018, dated 2022)
